Results reported in ChEMBL document CHEMBL5226335, “Efforts towards the inhibitor design for New Delhi metallo-beta-lactamase (NDM-1)” (Eur J Med Chem, 2021).
Converted amounts (≈) assume the structure as drawn.

Legend:
[1] = Binding affinity to NDM-1 (unknown origin) assessed as inhibition constant; parameters: species or system Bacteria
[2] = Inhibition of NDM-1 (unknown origin); parameters: species or system Bacteria
Klebsiella pneumoniae = test: Antibacterial activity against Klebsiella pneumoniae N11-2218 expressing NDM-1infected in mouse assessed as survival rate at 10 mg/kg,sc measured after 5 days; type: functional; conditions: N11-2218, 120 h, time 5 day
Escherichia coli = test: Antibacterial activity against Escherichia coli expressing NDM-1; type: functional

| Structure (SMILES) | IC50 [2] | also measured |
| --- | --- | --- |
| O=C(CSc1n[nH]c(-c2ccncc2)n1)Nc1ccccc1 |  | Ki [1]: 0.42 µM |
| O=C(CSc1nnc(-c2ccncc2)s1)Nc1ccccc1 |  | Ki [1]: 1.2 µM |
| O=C(O)c1nccn1Cc1ccc(O)cc1 | 118 µM |  |
| O=C(O)c1nccn1Cc1ccccc1 | 63.4 µM |  |
| O=C(CSc1nnc(-c2ccccc2O)[nH]1)Nc1ccccc1 |  | Ki [1]: 0.43 µM |
| Nc1cccc(-c2cc(C(=O)O)nc(C(=O)O)c2)c1 | 0.08 µM |  |
| O=C(Nc1cccc(-c2cc(C(=O)O)nc(C(=O)O)c2)c1)c1ccccc1 | 0.13 µM |  |
| N[C@H](CN[C@H](CN[C@@H](CC(=O)O)C(=O)O)C(=O)O)C(=O)O |  | survival at 10 mg/kg (Klebsiella pneumoniae): 95% |
| O=C(O)c1ncsc1NS(=O)(=O)c1cccnc1 |  | Ki [1]: 0.29 µM |
| O=C(NOC(=O)Oc1ccccc1)OCc1ccccc1 |  | Ki [1]: 140 µM |
| O=C(O)[C@@H]1CS[C@H]2CS[C@H](CS)N21 | 23 µM |  |
| CC1(C)S[C@@H]2CS[C@@H](CS)N2[C@H]1C(=O)O | 180 µM |  |
| CC1(C)S[C@H]2CS[C@H](CS)N2[C@@H]1C(=O)O | 200 µM |  |
| O=C(O)[C@H]1CS[C@@H]2CS[C@@H](CS)N12 | 109 µM |  |
| Cc1cc(-c2ccccc2)c(C(=O)O)[nH]1 |  | pIC50 [2]: 4.5 |
| O=C(CSc1nnc(-c2ccccc2O)s1)Nc1nc2ccccc2s1 |  | Ki [1]: 0.81 µM |
| CC1=C(c2ccc(Cl)cc2)N(/C(C)=N/c2ccc(Br)cc2)C(c2ccc(Cl)cc2)N1c1ccc(Br)cc1 (stereo not drawn) | 600 µM |  |
| CSCCC(NC(=O)Cc1ccccc1)C(=O)SCC(=O)O (stereo not drawn) | 19.7 µM |  |
| O=C(O)c1ccc(N(Cc2ccccc2)C(=O)c2cccs2)c(CP(=O)(O)O)n1 | 0.306 µM |  |

| Structure (SMILES) | IC50 [2] | also measured |
| --- | --- | --- |
| CCCCC(=O)NC(CCSC)C(=O)SCC(=O)O (stereo not drawn) | 37.7 µM |  |
| O=C(O)CSC(=O)C(Cc1ccccc1)NC(=O)Cc1ccc(-c2ccccc2)cc1 (stereo not drawn) | 44 µM |  |
| CC(=O)C1CSC(C(=O)O)N1 (stereo not drawn) | 3.45 µM |  |
| O=C(CSc1nnc(-c2ccccc2O)[nH]1)Nc1nc2ccccc2s1 |  | Ki [1]: 0.35 µM |
| O=C(O)c1ccc(O)c(CP(=O)(O)O)n1 | 0.322 µM |  |
| O=C(CSc1nnc(-c2ccccc2O)o1)Nc1ccccc1 |  | Ki [1]: 0.6 µM |
| Cc1cccc(-c2cc[nH]c2C(=O)O)c1 |  | pIC50 [2]: 4.2 |
| CCCC/C(=N\Nc1cccc2ccccc12)C(=O)O | 28.1 µM |  |
| O=C(O)c1cccc(CP(=O)(O)O)n1 | 0.374 µM |  |
| Oc1c(C(Nc2ccc(F)cc2)c2cncs2)ccc2cccnc12 (stereo not drawn) | 10.3 µM |  |
| O=C(CSc1nnc(-c2ccccc2O)s1)Nc1ccccc1 |  | Ki [1]: 0.64 µM |
| O=C(CSc1nnc(-c2ccncc2)o1)Nc1ccccc1 |  | Ki [1]: 0.23 µM |
| CCCC/C(=N\Nc1cccc2cccnc12)C(=O)O | 82.3 µM |  |
| O=Cc1coc2ccccc2c1=O |  | Ki [1]: 0.58 µM |
| O=C(O)C(=O)CBr [BROMOPYRUVATE] | 2.57 µM |  |
| CC(C)c1cc2c(c(O)c1O)[C@@]1(C(=O)O)CCCC(C)(C)[C@@H]1CC2 [CARNOSIC ACID] | 27.1 µM |  |
| N[C@@H](C(=O)N[C@@H]1C(=O)N2C(C(=O)O)=C(Cl)CS[C@H]12)c1ccccc1 [CEFACLOR ANHYDROUS] |  | Ki [1]: 2300 µM |
| O=c1c2ccccc2[se]n1-c1ccccc1 [EBSELEN] |  | Ki [1]: 0.38 µM |
| COc1cc(/C=C/c2ccc(O)cc2)cc(OC)c1 [PTEROSTILBENE] |  | survival at 10 mg/kg (Klebsiella pneumoniae): 52% |

More lines, main results first:

| IC50 [2] | Structure (SMILES) | also measured |
| --- | --- | --- |
| 0.692 µM | COc1cccc2sc(Nc3nnc(-c4cccs4)o3)nc12 |  |
| 0.19 µM | CN(C)c1ccc(-c2cc(C(=O)O)nc(C(=O)O)c2)cc1 |  |
| 0.13 µM | O=C(O)c1cc(-c2ccccc2O)cc(C(=O)O)n1 |  |
| 0.16 µM | O=c1c2ccccc2sn1-c1ccccc1 |  |
| 68.2 µM | CCC/C(=N\Nc1cccc2cccnc12)C(=O)O |  |
| 165 µM | NCc1ccc(Cn2ccnc2C(=O)O)cc1 |  |
| 54.9 µM | CCCCC(=O)NC(Cc1c[nH]c2ccccc12)C(=O)SCC(=O)O (stereo not drawn) |  |
| 28.6 µM | CCCCC(=O)NC(Cc1ccccc1)C(=O)SCC(=O)O (stereo not drawn) |  |
| 0.11 µM | CC(=O)NC1=C(S)/C(=C\S)NC1=O |  |
| 16.6 µM | O=C(O)CSC(=O)C(Cc1c[nH]c2ccccc12)NC(=O)Cc1ccc(-c2ccccc2)cc1 (stereo not drawn) |  |
| 64.8 µM | C[C@@H](CS)C(=O)N[C@@H](C(=O)O)c1ccc2cc[nH]c2c1 |  |
| 0.463 µM | Oc1c(C(Nc2ccccn2)c2cccs2)ccc2cccnc12 (stereo not drawn) |  |
| 27.9 µM | O=C(O)CSC(=O)C(Cc1c[nH]c2ccccc12)NC(=O)Cc1ccccc1 (stereo not drawn) |  |
| 2.93 µM | O=C(Cc1ccccc1)N[C@@H]1C(=O)N2C(C(=O)O)=C(CSc3nnc(-c4ccc(-n5[se]c6ccccc6c5=O)cc4)[nH]3)CSC12 (stereo partly drawn) |  |
| 900 µM | CC1=C(c2ccccc2)N(/C(C)=N/c2ccc(Cl)cc2)C(c2ccccc2)N1c1ccc(Cl)cc1 (stereo not drawn) |  |
| 400 µM | CC1=C(c2ccc(Cl)cc2)N(/C(C)=N/c2ccc(Cl)cc2)C(c2ccc(Cl)cc2)N1c1ccc(Br)cc1 (stereo not drawn) |  |
| 24.8 µM | C[C@H](CS)C(=O)N[C@@H](C(=O)O)c1ccc2cc[nH]c2c1 |  |
| 1.13 µM | O=C(O)c1cccc(C(=O)O)n1 [DIPICOLINIC ACID] |  |
| 0.13 µM | CCN(CC)C(=S)SSC(=S)N(CC)CC [DISULFIRAM] | MIC (Escherichia coli): 16 µg/mL (≈ 54 µM) |
